PubChem BioAssay (NCI)
Values joined by “and” are separate entries in the source; they are usually repeats but may differ in a detail not shown here. Equal entries are not always repeated.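 How tested: cells in 96-well plates exposed to compound for 48 hours at five concentrations. GI50: concentration for 50% inhibition of growth. TGI: total growth inhibition.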

What was measured:
Test in all cases: NCI-60 cell line screen, 48 h
786-0 renal = tested on: 786-0 renal
HT29 colon = tested on: HT29 colon
SR leukemia = tested on: SR leukemia
KM12 colon = tested on: KM12 colon
RXF 393 renal = tested on: RXF 393 renal
A549 NSCLC = tested on: A549 NSCLC
EKVX NSCLC = tested on: EKVX NSCLC
CAKI-1 renal = tested on: CAKI-1 renal
ACHN renal = tested on: ACHN renal
SK-MEL-28 melanoma = tested on: SK-MEL-28 melanoma

| SMILES | GI50 (786-0 renal) [µM] | TGI (786-0 renal) [µM] | GI50 (HT29 colon) | TGI (HT29 colon) [µM] | GI50 (SR leukemia) [µM] | TGI (SR leukemia) [µM] | GI50 (KM12 colon) | TGI (KM12 colon) [µM] | GI50 (RXF 393 renal) [µM] | TGI (RXF 393 renal) | GI50 (A549 NSCLC) | TGI (A549 NSCLC) [µM] | GI50 (EKVX NSCLC) [µM] | TGI (EKVX NSCLC) [µM] | GI50 (CAKI-1 renal) | TGI (CAKI-1 renal) [µM] | GI50 (ACHN renal) [µM] | TGI (ACHN renal) [µM] | GI50 (SK-MEL-28 melanoma) | TGI (SK-MEL-28 melanoma) [µM] |
| --- | --- | --- | --- | --- | --- | --- | --- | --- | --- | --- | --- | --- | --- | --- | --- | --- | --- | --- | --- | --- |
| O=P(CCCCP(=O)(c1ccccc1)c1ccccc1)(c1ccccc1)c1ccccc1.[Cl][Sn]([Cl])([c]1ccccc1)[c]1ccccc1 | 1.07 | 2.48 | 1.89 µM | 4.01 | 1.78 | > 100 | 3.05 µM | 10.5 | 1.38 | 3.13 µM | 3.59 µM | > 23.6 | 2.71 | 7.92 | 0.661 µM | 3.32 | 1.86 | 3.53 | 1.7 µM | 3.32 |
| COc1cc(/C=C/C(=O)c2c(C)nc3ccccc3c2/C=C/c2ccc(C)cc2)cc(OC)c1OC | 1.95 | 3.81 | 2.81 µM | 14 | 2 | 9.11 | 1.87 µM | 3.6 | 1.63 | 3.13 µM | 2.94 µM | > 100 | 2.32 | 6.32 | 1.4 µM | 3.01 | 1.99 | 4.6 | 2.02 µM | 3.91 |
| CCN1Cc2c(ccc(F)c2C#N)O[C@@H](C)CNC(=O)c2c(N)nn3ccc1nc23 | 2.85 | 15.9 | 0.98 µM | 46.7 | 0.626 | > 100 |  | 69.7 | 0.46 | 3.67 µM | 2.85 µM | 24 | 5.03 | 31.4 | 0.399 µM | 1.98 | 0.676 | 6.86 | 1.82 µM | 11.5 |
| COc1cccc(OCCCN)c1-c1cc(Nc2cnc(C#N)cn2)n[nH]1 | 0.00328 | 0.706 | 0.0289 µM and 0.0238 µM | 1.28 | 0.0032 | 1.25 | 0.0179 µM and 0.017 µM | 11.1 | 0.00496 | 0.0616 µM and 0.156 µM | 0.035 µM and 0.0452 µM | 15.1 |  | 45.6 | 0.405 µM and 0.0455 µM | 11.9 | 0.00332 | 0.0146 | 0.955 µM and 3.11 µM | 17.4 |
| COc1ccccc1N1CCN(CCc2c[nH]c3cc4c(cc23)OCO4)CC1 | 32.4 | > 100 | 3.39 µM | > 100 | 23.8 | 99 | 27.3 µM | > 100 | 17.9 | 92.9 µM | 31 µM | > 100 | 16.8 | 64.6 | 18.5 µM | 60.8 | 21.3 | > 100 | 43.9 µM | > 100 |
| CCCCCCCCCCC(C(O)c1ccccc1)N1CCCCC1 (stereo not drawn) | 1.78 | 3.25 | 1.72 µM | 4.41 | 2.13 | 5.34 | 1.29 µM | 2.72 | 1.76 | 3.4 µM | 4.61 µM | 17.1 | 2.09 | 6.08 | 1.53 µM | 3.06 | 2.19 | 4.95 | 1.83 µM | 3.32 |
| Cc1[nH]c(=O)n2c(C)nnc2c1C(=O)Nc1cc(Cl)cc(Cl)c1 |  | > 100 |  | > 100 |  | 66.5 |  | > 100 |  | 42 µM |  | > 100 |  | > 100 |  | > 100 |  | > 100 |  | 60.8 |
| C=C1C(=O)O[C@H]2[C@H](OC(C)=O)[C@@H](C)CCC/C(C)=C/CC[C@@]3(C)O[C@@H]3C[C@@H]12 |  | 3.56 |  | 8.05 |  | 6.02 |  | 18.8 |  | 5.08 µM |  | 34.6 |  | 8.79 |  | 5.37 |  | 3.4 |  | 11.1 |
| S=c1ssc(Oc2ccccc2)c1Cl | 6.63 | 20.7 | 1.37 µM | > 100 | 0.605 | > 100 | 13.2 µM | 26 | 12 | 29.8 µM | 33.9 µM | > 100 | 18.4 | 38.9 | 16 µM | 29.5 | 4.5 | 16.1 | 11.9 µM | 32 |
| COc1ccc(/C=C(\C#N)n2nnc3ccccc32)cc1 | 0.63 | 7.22 | 0.0453 µM | > 100 | 0.0555 | > 39.6 | 0.0948 µM | > 21.7 | 0.15 | 0.607 µM | 0.235 µM | > 100 | 0.431 | > 100 | 0.0638 µM | > 84.6 | 0.434 | 17.2 | 1.65 µM | > 86.9 |
| Cc1ccc(NC(=O)C(=O)CC(=O)c2c(C)n([O-])c3ccccc3[n+]2=O)cc1 |  | > 100 |  | 86.4 |  | 49.8 |  | > 100 |  | > 100 µM |  | 87.3 |  | 40.9 |  | > 100 |  | > 100 |  | > 100 |
| O=C(O)c1cc(-c2ccncc2)nc2ccccc12 |  | > 100 |  | > 100 |  | > 100 |  | > 100 |  | > 100 µM |  | > 100 |  | > 100 |  | > 100 |  | > 100 |  | > 100 |
| COc1ccc(C(=O)/C=C/c2ccc3c(c2)OCO3)c(OCc2ccccc2)c1 |  | > 100 |  | > 100 |  | > 27.1 |  | > 100 |  | > 100 µM |  | > 100 |  | > 100 |  | > 100 |  | > 100 |  | > 100 |
| O=C1CCCC(=O)N1CCc1c[nH]c2ccccc12 |  | > 100 |  | > 100 |  | > 100 |  | > 100 |  | > 100 µM |  | > 100 |  | > 100 |  | > 100 |  | > 100 |  | > 100 |
| Cn1ccc2c(C(=O)c3ccccc3)cccc2c1=O |  | > 100 |  | > 100 |  | > 100 |  | > 100 |  | > 100 µM |  | > 100 |  | > 100 |  | > 100 |  | > 100 |  | > 100 |
| Cc1cc(=O)[nH]c2cc3c(c4c(n3Cc3ccc(Cl)cc3Cl)CC(C)(C)CC4=O)c(O)c12 | 0.0145 | 0.134 | > 100 µM | > 100 | 25.2 | > 100 | > 100 µM | > 100 | > 100 | > 100 µM | 46.3 µM | > 100 | 36.4 | > 100 | > 100 µM | > 100 | > 100 | > 100 | > 100 µM | > 100 |
| Fc1ccccc1C1SCc2nc3ccccc3n21 (stereo not drawn) |  | > 100 |  | > 100 |  | > 100 |  | > 100 |  | > 100 µM |  | > 100 |  | > 100 |  | > 100 |  | > 100 |  | > 100 |
| Nc1nc(N)c2c(n1)NC(c1ccc(F)cc1)C1CCc3ccccc3C1=N2 (stereo not drawn) | 6.9 | 20.1 | 3.84 µM | 15 | 1.65 | 4.14 | 4.93 µM | 17 | 5.48 | 20 µM | 10.2 µM | 24.3 | 2.83 | 14.6 | 2.72 µM | 16.2 | 4.96 | 17.8 | 7.16 µM | 19.7 |
| O=C(c1ccccc1)C(Br)C(Br)c1cccc([N+](=O)[O-])c1 (stereo not drawn) | 1.61 | 3.07 | 3.45 µM | > 100 | 1.2 | 4.53 | 1.61 µM | 3.05 | 1.59 | 2.94 µM | 14.3 µM | 32.3 | 16.4 | 34.5 | 1.76 µM | 3.58 | 1.46 | 2.77 | 1.87 µM | 3.64 |
| c1ccc2cc3[s+]snc3cc2c1 |  | > 100 |  | > 100 |  | > 100 |  | > 100 |  | > 100 µM |  | > 100 |  | > 100 |  | > 100 |  | > 100 |  | > 100 |
| Cc1cc(NCc2cc(Nc3ccnc4cc(Cl)ccc34)ccc2F)nc(N2CCN(C)CC2)n1 | 1.44 | 2.88 | 1.72 µM | 5.13 | 0.245 | 1.03 | 2.11 µM | 6.5 | 1.26 | 2.94 µM | 3.07 µM | 10.9 | 2.91 | 12.6 | 1.67 µM | 4 | 2.16 | 5.38 | 1.7 µM | 3.26 |
| C=C(C)[C@@H]1CC[C@]2(C)[C@H](CC=C3[C@@H]4[C@@H](C)[C@H](C)CC[C@]4(C(N)=O)CC[C@]32C)[C@@]1(C)CCC#N | 2.26 | 5.75 | 3.34 µM | 21.1 | 2.58 | 9.48 | 3.47 µM | 23.2 | 3.33 | 11.4 µM | 3.35 µM | > 100 | 5.22 | > 100 | 3.25 µM | > 100 | 3.37 | > 100 | 7.57 µM | 22.7 |
